Test results from ChEMBL document CHEMBL3885881, “DrugMatrix”.

Organism: Rattus norvegicus
Assay: DrugMatrix - Regimen: Daily Repeat
Format: toxicity, organism-based, Sprague-Dawley
Set-up: regimen Daily Repeat, gender Male, age 6-8 weeks
Details: in vivo, po, route oral GAVAGE, vehicle .5 % CMC; for BASOPHIL / EOSINOPHIL / ERYTHROCYTE COUNT / HEMATOCRIT / HEMOGLOBIN / LEUKOCYTE COUNT / LYMPHOCYTE / MEAN CORPUSCULAR HEMOGLOBIN / MEAN CORPUSCULAR HEMOGLOBIN CONCENTRATION / MEAN CORPUSCULAR VOLUME / MONOCYTE / NEUTROPHIL / PLATELET COUNT: tissue Blood; for ALANINE AMINOTRANSFERASE / ALBUMIN / ALKALINE PHOSPHATASE / ASPARTATE AMINOTRANSFERASE / BLOOD UREA NITROGEN / CHLORIDE / CHOLESTEROL / CREATINE PHOSPHOKINASE / CREATININE / GLUCOSE / PHOSPHORUS / POTASSIUM / SODIUM / TOTAL BILIRUBIN / TOTAL PROTEIN: tissue Plasma
[1] = 0 mg/kg, 72 h, dose level Control, time 3 day
[2] = 0 mg/kg, 120 h, dose level Control, time 5 day
[3] = 25 mg/kg, 72 h, dose level Low, time 3 day
[4] = 25 mg/kg, 120 h, dose level Low, time 5 day

N=C(N)NCCN1CCCCCCC1 [GUANETHIDINE]
BASOPHIL [1]: 0% | EOSINOPHIL [1]: 0% | ERYTHROCYTE COUNT [1]: 6.34 x10E6/uL | HEMATOCRIT [1]: 37.62% | HEMOGLOBIN [1]: 14.82 G/DL | LEUKOCYTE COUNT [1]: 11.18 x10E3/uL | LYMPHOCYTE [1]: 87.5% | MEAN CORPUSCULAR HEMOGLOBIN [1]: 23.48 pg | MEAN CORPUSCULAR HEMOGLOBIN CONCENTRATION [1]: 39.5 G/DL | MEAN CORPUSCULAR VOLUME [1]: 59.45 fL | MONOCYTE [1]: 1.67% | NEUTROPHIL [1]: 10.83% | PLATELET COUNT [1]: 1074.83 x10E3/uL | ALANINE AMINOTRANSFERASE [1]: 36.5 u/L | ALBUMIN [1]: 3.9 G/DL | ALKALINE PHOSPHATASE [1]: 370.17 u/L | ASPARTATE AMINOTRANSFERASE [1]: 63.17 u/L | BLOOD UREA NITROGEN [1]: 16.83 mg/dL | CHLORIDE [1]: 99.33 MEQ/L | CHOLESTEROL [1]: 64.33 mg/dL | CREATINE PHOSPHOKINASE [1]: 127 u/L | CREATININE [1]: 0.55 mg/dL | GLUCOSE [1]: 173.5 mg/dL | PHOSPHORUS [1]: 10.08 mg/dL | POTASSIUM [1]: 6.23 MEQ/L | SODIUM [1]: 143.5 MEQ/L | TOTAL BILIRUBIN [1]: 0.52 mg/dL | TOTAL PROTEIN [1]: 6.35 G/DL | BASOPHIL [2]: 0% | EOSINOPHIL [2]: 0.17% | ERYTHROCYTE COUNT [2]: 6.12 x10E6/uL | HEMATOCRIT [2]: 37.08% | HEMOGLOBIN [2]: 14.82 G/DL | LEUKOCYTE COUNT [2]: 11.87 x10E3/uL | LYMPHOCYTE [2]: 83.33% | MEAN CORPUSCULAR HEMOGLOBIN [2]: 24.25 pg | MEAN CORPUSCULAR HEMOGLOBIN CONCENTRATION [2]: 39.97 G/DL | MEAN CORPUSCULAR VOLUME [2]: 60.65 fL | MONOCYTE [2]: 1.5% | NEUTROPHIL [2]: 15% | PLATELET COUNT [2]: 1042.83 x10E3/uL | ALANINE AMINOTRANSFERASE [2]: 46 u/L | ALBUMIN [2]: 3.82 G/DL | ALKALINE PHOSPHATASE [2]: 369.5 u/L | ASPARTATE AMINOTRANSFERASE [2]: 65 u/L | BLOOD UREA NITROGEN [2]: 16.33 mg/dL | CHLORIDE [2]: 100.67 MEQ/L | CHOLESTEROL [2]: 57.17 mg/dL | CREATINE PHOSPHOKINASE [2]: 130 u/L | CREATININE [2]: 0.53 mg/dL | GLUCOSE [2]: 163.33 mg/dL | PHOSPHORUS [2]: 9.53 mg/dL | POTASSIUM [2]: 6.27 MEQ/L | SODIUM [2]: 144.83 MEQ/L | TOTAL BILIRUBIN [2]: 0.55 mg/dL | TOTAL PROTEIN [2]: 6.32 G/DL | BASOPHIL [3]: 0% | EOSINOPHIL [3]: 0% | ERYTHROCYTE COUNT [3]: 6 x10E6/uL | HEMATOCRIT [3]: 35.93% | HEMOGLOBIN [3]: 14.07 G/DL | LEUKOCYTE COUNT [3]: 11.77 x10E3/uL | LYMPHOCYTE [3]: 86.33% | MEAN CORPUSCULAR HEMOGLOBIN [3]: 23.5 pg | MEAN CORPUSCULAR HEMOGLOBIN CONCENTRATION [3]: 39.17 G/DL | MEAN CORPUSCULAR VOLUME [3]: 60.07 fL | MONOCYTE [3]: 0% | NEUTROPHIL [3]: 13.67% | PLATELET COUNT [3]: 1321.67 x10E3/uL | ALANINE AMINOTRANSFERASE [3]: 33.67 u/L | ALBUMIN [3]: 3.63 G/DL | ALKALINE PHOSPHATASE [3]: 372.67 u/L | ASPARTATE AMINOTRANSFERASE [3]: 57.67 u/L | BLOOD UREA NITROGEN [3]: 11.33 mg/dL | CHLORIDE [3]: 98.67 MEQ/L | CHOLESTEROL [3]: 63.67 mg/dL | CREATINE PHOSPHOKINASE [3]: 142.33 u/L | CREATININE [3]: 0.43 mg/dL | GLUCOSE [3]: 175.67 mg/dL | PHOSPHORUS [3]: 12.27 mg/dL | POTASSIUM [3]: 5.97 MEQ/L | SODIUM [3]: 143.67 MEQ/L | TOTAL BILIRUBIN [3]: 0.33 mg/dL | TOTAL PROTEIN [3]: 5.8 G/DL | BASOPHIL [4]: 0% | EOSINOPHIL [4]: 0.67% | ERYTHROCYTE COUNT [4]: 5.92 x10E6/uL | HEMATOCRIT [4]: 35.83% | HEMOGLOBIN [4]: 14.4 G/DL | LEUKOCYTE COUNT [4]: 11.83 x10E3/uL | LYMPHOCYTE [4]: 89.67% | MEAN CORPUSCULAR HEMOGLOBIN [4]: 24.33 pg | MEAN CORPUSCULAR HEMOGLOBIN CONCENTRATION [4]: 40.17 G/DL | MEAN CORPUSCULAR VOLUME [4]: 60.63 fL | MONOCYTE [4]: 1% | NEUTROPHIL [4]: 8.67% | PLATELET COUNT [4]: 1170.33 x10E3/uL | ALANINE AMINOTRANSFERASE [4]: 33 u/L | ALBUMIN [4]: 3.53 G/DL | ALKALINE PHOSPHATASE [4]: 229.67 u/L | ASPARTATE AMINOTRANSFERASE [4]: 54.67 u/L | BLOOD UREA NITROGEN [4]: 10.33 mg/dL | CHLORIDE [4]: 100.33 MEQ/L | CHOLESTEROL [4]: 57.67 mg/dL | CREATINE PHOSPHOKINASE [4]: 129.33 u/L | CREATININE [4]: 0.47 mg/dL | GLUCOSE [4]: 170.67 mg/dL | PHOSPHORUS [4]: 11.13 mg/dL | POTASSIUM [4]: 5.9 MEQ/L | SODIUM [4]: 145.33 MEQ/L | TOTAL BILIRUBIN [4]: 0.2 mg/dL | TOTAL PROTEIN [4]: 5.7 G/DL
